# Measured values published in ChEMBL document CHEMBL2163222 (J Med Chem, 2012).
# The source made the active and inactive calls. The calls are words filed in the database; no cut-off is given here.
# Tests used:
# UACC-62 = experiment: Growth inhibition of human UACC62 cells at 10 uM by NCI-60 cell inhibition assay; format: functional; settings: read-out: GI
# Hs 683 = experiment: Inhibition of eIF2 activity in human Hs683 cells at 0.5 uM after 4 hrs by Western blotting method; format: functional, cell-based
# KM12 = experiment: Growth inhibition of human KM12 cells at 10 uM by NCI-60 cell inhibition assay; format: functional; settings: read-out: GI
# A498 = experiment: Growth inhibition of human A498 cells at 10 uM by NCI-60 cell inhibition assay; format: functional; settings: read-out: GI
# OVCAR-4 = experiment: Growth inhibition of human OVCAR4 cells at 10 uM by NCI-60 cell inhibition assay; format: functional; settings: read-out: GI
# SK-OV-3 = experiment: Growth inhibition of human SKOV3 cells at 10 uM by NCI-60 cell inhibition assay; format: functional; settings: read-out: GI
# PC-3 = experiment: Growth inhibition of human PC3 cells at 10 uM by NCI-60 cell inhibition assay; format: functional; settings: read-out: GI
# DU-145 = experiment: Growth inhibition of human DU145 cells at 10 uM by NCI-60 cell inhibition assay; format: functional; settings: read-out: GI
# NCI-H226 = experiment: Growth inhibition of human NCI-H226 cells at 10 uM by NCI-60 cell inhibition assay; format: functional; settings: read-out: GI
# MCF7 = experiment: Growth inhibition of human MCF7 cells at 10 uM by NCI-60 cell inhibition assay; format: functional; settings: read-out: GI
# OVCAR-8 = experiment: Growth inhibition of human OVCAR8 cells at 10 uM by NCI-60 cell inhibition assay; format: functional; settings: read-out: GI
# CAKI-1 = experiment: Growth inhibition of human Caki1 cells at 10 uM by NCI-60 cell inhibition assay; format: functional; settings: read-out: GI
# HOP-92 = experiment: Growth inhibition of human HOP92 cells at 10 uM by NCI-60 cell inhibition assay; format: functional; settings: read-out: GI
# OVCAR-3 = experiment: Growth inhibition of human OVCAR3 cells at 10 uM by NCI-60 cell inhibition assay; format: functional; settings: read-out: GI
# IGROV-1 = experiment: Growth inhibition of human IGROV1 cells at 10 uM by NCI-60 cell inhibition assay; format: functional; settings: read-out: GI
# COLO 205 = experiment: Growth inhibition of human COLO205 cells at 10 uM by NCI-60 cell inhibition assay; format: functional; settings: read-out: GI
# 786-0 = experiment: Growth inhibition of human 786-0 cells at 10 uM by NCI-60 cell inhibition assay; format: functional; settings: read-out: GI
# [1] = Inhibition of eIF2 protein expression in human U373 cells at 0.5 uM after 4 hrs by Western blotting method; format: functional, cell-based; settings: U-373MG ATCC
# OE33 = experiment: Growth inhibition of human OE33 cells after 3 days by MTT assay; format: functional, cell-based; settings: OE33, 72 h
# SN12C = experiment: Growth inhibition of human SN12C cells at 10 uM by NCI-60 cell inhibition assay; format: functional; settings: read-out: GI
# [2] = molecular target: Dual specificity tyrosine-phosphorylation-regulated kinase 1A (Homo sapiens, UniProt Q13627); experiment: Inhibition of DYRK1A kinase using RBER-CHKtide substrate by radiometric protein kinase assay
smiles,measurement,setting,value
Cc1c2c(cc[n+]1Cc1ccccc1)c1ccc(OCc3ccccc3)cc1n2Cc1ccccc1.[Br-],inhibition of growth at 10 µM,UACC-62,-87.1%
same,inhibition,Hs 683,Active
same,inhibition of growth at 10 µM,KM12,-98.4%
same,inhibition of growth at 10 µM,A498,-34.5%
same,inhibition of growth at 10 µM,OVCAR-4,-3.79%
same,inhibition of growth at 10 µM,SK-OV-3,7.67%
same,inhibition of growth at 10 µM,PC-3,-44.8%
same,inhibition of growth at 10 µM,DU-145,-33.6%
same,inhibition of growth at 10 µM,NCI-H226,-12%
same,inhibition of growth at 10 µM,MCF7,-23.1%
same,inhibition of growth at 10 µM,OVCAR-8,-70.9%
same,inhibition of growth at 10 µM,CAKI-1,-5.76%
same,inhibition of growth at 10 µM,HOP-92,-67.8%
same,inhibition of growth at 10 µM,OVCAR-3,-97.1%
same,inhibition of growth at 10 µM,IGROV-1,-65.1%
same,inhibition of growth at 10 µM,COLO 205,-82.3%
same,inhibition of growth at 10 µM,786-0,-87.4%
same,inhibition,[1],Active
same,IC50,OE33,700 nM
same,inhibition of growth at 10 µM,SN12C,-86.6%
Cc1c2c(cc[n+]1Cc1ccccc1)c1ccc(OCC3CCCCC3)cc1n2CC1CCCCC1.[Br-],inhibition of growth at 10 µM,UACC-62,-94%
same,inhibition,Hs 683,inactive
same,inhibition of growth at 10 µM,KM12,-99.9%
same,inhibition of growth at 10 µM,A498,-97.4%
same,inhibition of growth at 10 µM,OVCAR-4,-94.3%
same,inhibition of growth at 10 µM,SK-OV-3,-53.4%
same,inhibition of growth at 10 µM,PC-3,-75.8%
same,inhibition of growth at 10 µM,DU-145,-100%
same,inhibition of growth at 10 µM,NCI-H226,-89.1%
same,inhibition of growth at 10 µM,MCF7,-92.3%
same,inhibition of growth at 10 µM,OVCAR-8,-90.1%
same,inhibition of growth at 10 µM,CAKI-1,-92.5%
same,inhibition of growth at 10 µM,HOP-92,-85.6%
same,inhibition of growth at 10 µM,OVCAR-3,-100%
same,IC50,[2],43000 nM
same,inhibition of growth at 10 µM,IGROV-1,-70.6%
same,inhibition of growth at 10 µM,COLO 205,-95.2%
same,inhibition of growth at 10 µM,786-0,-91.3%
same,inhibition,[1],inactive
same,IC50,OE33,370 nM
same,inhibition of growth at 10 µM,SN12C,-91.9%
